The melting point is the temperature of the solid-liquid transition. The IC90 is the concentration at which the effect reaches the 90% level.

Converted amounts (≈) assume the structure as drawn. Like-named read-outs stand apart in the source and are kept apart here. Where only a bound is given, the exact number is not on record here.

Melting point, Ki and IC90 data for 30 compounds are collected here from patent USRE37781E1, “Substituted cyclic carbonyls and derivatives thereof useful as retroviral protease inhibitors” (DuPont Pharmaceuticals Company, priority 1991, dated 2002).

Series [1] addresses single-chain tethered dimer of HIV protease (Human immunodeficiency virus 1, UniProt P04585). Nature of the series: biochemical. Also on record: fused on or other part: A second copy of the same protease unit is joined to the first by a short peptide tether, giving one polypeptide. The series is classed as biochemical.
Series [2] concerns HIV-1 (RF) in MT-2 cells. Nature of the series: microbe, parasite or virus in culture. Type of series: cell-based. In outline:
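HIV-1 laboratory strains (RF, MN, IIIB) grown in H9 cells in RPMI 1640 with 5% FCS; infections in MT-2 cells. Viral RNA quantified by hybridization with biotinylated gag/pol capture probes on streptavidin plates and alkaline phosphatase-conjugated reporter probes; BH10 gag-pol in vitro transcripts serve as RNA standards.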

Where [3] appears, read: read-out: HPLC K1, Table 2d, HIV protease inhibition, HPLC method.
Where [4] appears, read: Human immunodeficiency virus 1, MT2, Table 2q, read-out: IC90.
[5] abbreviates: Human immunodeficiency virus 1, MT2, 48 h, Table 2d, class symbols, read-out: IC90.
Setting [6] is: read-out: HPLC K1, Table 2d, class symbols.
Setting [7] is: Human immunodeficiency virus 1, MT2, 48 h, Table 2d, HIV RNA assay, read-out: IC90.
[8] abbreviates: Human immunodeficiency virus 1, MT2, Table 2i, read-out: IC90.

In the case of `Cc1ccc(CN2C(=O)N(Cc3ccc(CO)cc3)C(Cc3ccccc3)C(O)C(O)C2Cc2ccccc2)cc1` (stereo not shown) [15EI], the melting point was 174 to 175 °C. Besides, the Ki in series [1] (setting [3]) was less than 0.01 µM.
`OC1C(O)C(Cc2ccccc2)N(Cc2ccccc2)C(=S)N(Cc2ccccc2)C1Cc1ccccc1` (stereo not shown) [Example 27A] returned a melting point of 92 to 94 °C. In addition, in series [2] (setting [4]), the IC90 was less than 10 µg/mL. In addition, in series [1] (read-out: HPLC Ki, Table 2q), the Ki was less than 0.01 µM.
`NNC(=O)c1cccc(CN2C(=O)N(Cc3cccc(C(=O)NN)c3)C(Cc3ccccc3)C(O)C(O)C2Cc2ccccc2)c1` (stereo not shown) [Example 10M] had a melting point of 205 °C. For the same compound, in series [2] (setting [5]), the IC90 was less than 10 µg/mL. The Ki in series [1] (setting [6]) was less than 0.01 µM.
For `CNC(=O)Oc1cccc(CN2C(=O)N(Cc3cccc(OC(=O)NC)c3)C(Cc3ccccc3)C(O)C(O)C2Cc2ccccc2)c1` (stereo not shown) [Example 9M], the melting point was 150 °C (dec.). This compound registered an IC90 in series [2] (Human immunodeficiency virus 1, MT2, 48 h) of less than 10 µg/mL. In series [1] (setting [6]), the Ki is 0.01 to 1 µM.
In the case of `NC(=O)c1cccc(CN2C(=O)NC(Cc3ccccc3)C(O)C(O)C2Cc2ccccc2)c1` (stereo not shown) [15WW], the melting point was 114 to 116 °C. Further, the IC90 in series [2] (setting [5]) is less than 10 µg/mL. Moreover, the Ki in series [1] (setting [6]) was less than 0.01 µM.
Take `O=C(NCc1ccccc1)Oc1cccc(CN2C(=O)N(Cc3cccc(OC(=O)NCc4ccccc4)c3)C(Cc3ccccc3)C(O)C(O)C2Cc2ccccc2)c1` (stereo not shown) [Example 9L]: the melting point was 150 °C (dec.). Further, the IC90 in series [2] (setting [5]) is less than 10 µg/mL. Besides, the Ki in series [1] (setting [6]) was 0.01 to 1 µM.
For `O=C1NC(Cc2ccccc2)C(O)C(O)C(Cc2ccccc2)N1Cc1ccc(CO)cc1` (stereo not shown) [Example 11N], in that order: 112 to 114 °C, less than 10 µg/mL and less than 0.01 µM.
On to `O=C1N(Cc2cccc(-c3ncc[nH]3)c2)C(Cc2ccccc2)C(O)C(O)C(Cc2ccccc2)N1Cc1cccc(-c2ncc[nH]2)c1` (stereo not shown) [Example 15BR], for which the melting point lay within 178 to 180 °C. In addition, in series [2] (setting [7]), the IC90 was less than 10 µg/mL. Further, the Ki in series [1] (setting [3]) is less than 0.01 µM.
`CCOC(=O)c1ccc(CN2C(=O)N(Cc3ccc(C(=O)OCC)cc3)C(Cc3ccccc3)C(O)C(O)C2Cc2ccccc2)cc1` (stereo not shown) [Example 11F] showed a melting point of 174 to 178 °C. Further, the IC90 in series [2] (setting [5]) was more than 100 µg/mL. The Ki in series [1] (setting [6]) was in the range of 0.01 to 1 µM.
Regarding `O=S1(=O)N(Cc2ccc(CO)cc2)C(Cc2ccccc2)C(O)C(O)C(Cc2ccccc2)N1Cc1ccc(CO)cc1` (stereo not shown) [23B], the melting point was 189 to 190 °C. In series [2] (Human immunodeficiency virus 1, MT2, Table 2m, read-out: IC90), the IC90 was less than 10 µg/mL. The Ki in series [1] (read-out: HPLC Ki, Table 2m) is less than 0.01 µM.
For `CC1C(O)C(O)C(C)N(Cc2ccc3ccccc3c2)C(=O)N1Cc1ccc2ccccc2c1` (stereo not shown) [Example 16H], the melting point was in the range of 236 to 238 °C. In series [1] (read-out: K4 HPLC, Table 2e), the Ki was more than 1 µM.
Regarding `O=C1Nc2ccc(CN3C(=O)N(Cc4ccc5c(c4)C(=O)C(=O)N5)C(Cc4ccccc4)C(O)C(O)C3Cc3ccccc3)cc2C1=O` (stereo not shown) [15DA], the melting point was 196 to 200 °C. The IC90 in series [2] (setting [7]) was less than 10 µg/mL. For the same compound, the Ki in series [1] (setting [3]) was less than 0.01 µM.
For `CC(=O)c1cccc(CN2C(=O)N(Cc3cccc(Br)c3)C(Cc3ccccc3)C(O)C(O)C2Cc2ccccc2)c1` (stereo not shown) [Example 9o], the melting point lay within 190 to 191 °C. The IC90 in series [2] (setting [5]) is less than 10 µg/mL. In addition, the Ki in series [1] (setting [6]) was 0.01 to 1 µM.
Consider `OC1C(O)C(Cc2ccccc2)N(CC2CC2)C(=S)N(CC2CC2)C1Cc1ccccc1` (stereo not shown) [Example 27B], for which the melting point is 84 to 86 °C. Moreover, the IC90 in series [2] (setting [4]) is less than 10 µg/mL. Besides, in series [1] (read-out: HPLC Ki, Table 2q), the Ki was less than 0.01 µM.
`O=C1N(Cc2cccc(C=NOCc3ccccc3)c2)C(Cc2ccccc2)C(O)C(O)C(Cc2ccccc2)N1Cc1cccc(C=NOCc2ccccc2)c1` (stereo not shown) [Example 9D] showed a melting point of 170.5 to 171 °C. The IC90 in series [2] (setting [5]) lay in the range of 10 to 100 µg/mL (≈ 12.9 to 129 µM). Besides, in series [1] (setting [6]), the Ki lay in the range of 0.01 to 1 µM.
The matching figures for `NC(=O)c1cccc(CN2C(=O)N(Cc3ccc(CO)cc3)C(Cc3ccccc3)C(O)C(O)C2Cc2ccccc2)c1` (stereo not shown) [15WT]: 123 to 124 °C, less than 10 µg/mL and less than 0.01 µM.
For `O=C1N(Cc2cccc(CCl)c2)C(Cc2ccccc2)C(O)C(O)C(Cc2ccccc2)N1Cc1cccc(CCl)c1` (stereo not shown) [Example 9S], in that order: 156 to 157 °C, less than 10 µg/mL and 0.01 to 1 µM.
Take `O=C1N(Cc2ccc3[nH]ccc3c2)C(Cc2ccccc2)C(O)C(O)C(Cc2ccccc2)N1Cc1ccc2[nH]ccc2c1` (stereo not shown) [15DE]: the melting point is 170 °C (dec.). Also, the IC90 in series [2] (setting [7]) is less than 10 µg/mL. In series [1] (setting [3]), the Ki was less than 0.01 µM.
Regarding `CNc1cccc(CN2C(=O)N(Cc3ccc4ccccc4c3)C(Cc3ccccc3)C(O)C(O)C2Cc2ccccc2)c1` (stereo not shown) [15WZ], the melting point was in the range of 98 to 100 °C. Further, the IC90 in series [2] (setting [5]) is less than 10 µg/mL. For the same compound, the Ki in series [1] (setting [6]) was less than 0.01 µM.
The compound `O=C1N(Cc2ccoc2)C(Cc2ccccc2)C(O)C(O)C(Cc2ccccc2)N1Cc1ccoc1` (stereo not shown) [Example 15FN] gave a melting point of 152.5 to 153 °C. In series [2] (Human immunodeficiency virus 1, MT2, 48 h, HIV RNA assay, HIV-1 infected MT-2 cells, Table 2d, read-out: IC90), the IC90 was less than 10 µg/mL. In addition, in series [1] (read-out: HPLC K1, HIV protease inhibition, HPLC method, Table 2d), the Ki was less than 0.01 µM.
The compound `O=C1N(CC2CC2)C(Cc2ccc([N+](=O)[O-])cc2)C(O)C(O)C(Cc2ccc([N+](=O)[O-])cc2)N1CC1CC1` (stereo not shown) [Example 20B] had a melting point of 227.5 °C. Besides, the IC90 in series [2] (setting [8]) is less than 10 µg/mL. In series [1] (read-out: HPLC Ki, Table 2i), the Ki was less than 0.01 µM.
The compound `O=C1N(Cc2cccc(-c3cc[nH]n3)c2)C(Cc2ccccc2)C(O)C(O)C(Cc2ccccc2)N1Cc1ccc(O)c(O)c1` (stereo not shown) [Example 15CC] returned a melting point of 177 to 180 °C. Besides, the IC90 in series [2] (setting [7]) is less than 10 µg/mL. Also, in series [1] (setting [3]), the Ki was less than 0.01 µM.
In the case of `Nc1cccc(CN2C(=O)N(Cc3cccc(O)c3)C(Cc3ccccc3)C(O)C(O)C2Cc2ccccc2)c1` (stereo not shown) [11Q], the melting point lay within 116 to 120 °C. The IC90 in series [2] (setting [5]) was less than 10 µg/mL. For the same compound, in series [1] (setting [6]), the Ki is less than 0.01 µM.
In turn, `O=C1N(Cc2cccnc2)C(Cc2ccccc2)C(O)C(O)C(Cc2ccccc2)N1Cc1cccc(-c2cc[nH]n2)c1` (stereo not shown) [Example 15BU] had a melting point of 133 to 136 °C. Further, the IC90 in series [2] (setting [7]) is less than 10 µg/mL. The Ki in series [1] (setting [3]) is less than 0.01 µM.
Regarding `O=C(Nc1cccc(CN2C(=O)N(Cc3cccc(NC(=O)OCc4ccccc4)c3)C(Cc3ccccc3)C(O)C(O)C2Cc2ccccc2)c1)OCc1ccccc1` (stereo not shown) [15E], the melting point is 190.7 °C. Moreover, the IC90 in series [2] (setting [5]) is more than 100 µg/mL. Besides, the Ki in series [1] (setting [6]) fell in the range of 0.01 to 1 µM.
As to `CN(C)c1cccc(CN2C(=O)N(Cc3cccc(N(C)C)c3)C(Cc3ccccc3)C(O)C(O)C2Cc2ccccc2)c1` (stereo not shown) [15I], the melting point worked out at 199.9 °C. Besides, the IC90 in series [2] (setting [5]) is less than 10 µg/mL. Besides, the Ki in series [1] (setting [6]) is less than 0.01 µM.
Regarding `O=C1N(CC2CC2)C(Cc2ccc([N+](=O)[O-])cc2)C(O)C(O)C(Cc2ccccc2[N+](=O)[O-])N1CC1CC1` (stereo not shown) [Example 20A], the melting point turned out to be 209.8 °C. Moreover, the IC90 in series [2] (setting [8]) is less than 10 µg/mL. In series [1] (read-out: HPLC Ki, Table 2i), the Ki was less than 0.01 µM.
The compound `CCCCCCC1C(O)C(O)C(CCCCCC)N(Cc2ccccc2)C(=O)N1Cc1ccccc1` (stereo not shown) [Example 16AI] had a melting point of 79 to 82 °C. Moreover, the Ki in series [1] (read-out: K4 HPLC, Table 2e) lay within 0.01 to 1 µM.
The matching figures for `CCCCCC1C(O)C(O)C(CCCCC)N(Cc2ccccc2)C(=O)N1Cc1ccccc1` (stereo not shown) [Example 16AH]: 94 to 97 °C and 0.01 to 1 µM.
For the compound `CNC(=O)Nc1cccc(CN2C(=O)N(Cc3cccc(NC(=O)NC)c3)C(Cc3ccccc3)C(O)C(O)C2Cc2ccccc2)c1` (stereo not shown) [15L], the melting point worked out at 173.7 °C. Further, the Ki in series [1] (setting [6]) is less than 0.01 µM.
